Source: patent US5965622A, “Desformoterol and process for its preparation” (Sepracor Inc., priority 1998, dated 1999)
“Also recorded” adds a separate entry of the source. Like-named read-outs stand apart in the source and are kept apart here.

Experiments:
[1] = biological target: human β2-adrenergic receptor (Homo sapiens, UniProt P07550); test: binding to human β2-adrenergic receptor (competition curves); conditions: for adrenergic receptor agonist selectivity, in words: binding studies
Description: (§1) The four isomers of desformoterol, (R,R)-, (S,S)-, (R,S)-, and (S,R)-, and a 1:1 mixture of the (R,R)- and the (S,S)-enantiomers, were screened, in duplicate, at three concentrations (10^-9, 10^-7, 10^-5 M) for binding to human β1 and β2 -adrenergetic receptors. The compounds were then tested at ten concentrations in duplicate in order to obtain full competition curves. Reference compounds were simultaneously tested at eight concentrations.

[2] = biological target: human β1-adrenergic receptor (Homo sapiens, UniProt P08588); test: binding to human β1-adrenergic receptor (competition curves)
Description: as §1

[3] = when inhaled; background statement; cited from earlier work
[4] = stability of desformoterol according to conditions; type: physicochemical; conditions: pH of the environment
Source text: It has been observed that the stability of desformoterol can vary according to conditions.

[5] = human β2-adrenergic receptor, ten concentrations in duplicate (reference compounds eight), read-out: IC50 β2
[6] = human β1-adrenergic receptor, ten concentrations in duplicate (reference compounds eight), read-out: IC50 β1

Sequence of human β2-adrenergic receptor (P07550 whole entry): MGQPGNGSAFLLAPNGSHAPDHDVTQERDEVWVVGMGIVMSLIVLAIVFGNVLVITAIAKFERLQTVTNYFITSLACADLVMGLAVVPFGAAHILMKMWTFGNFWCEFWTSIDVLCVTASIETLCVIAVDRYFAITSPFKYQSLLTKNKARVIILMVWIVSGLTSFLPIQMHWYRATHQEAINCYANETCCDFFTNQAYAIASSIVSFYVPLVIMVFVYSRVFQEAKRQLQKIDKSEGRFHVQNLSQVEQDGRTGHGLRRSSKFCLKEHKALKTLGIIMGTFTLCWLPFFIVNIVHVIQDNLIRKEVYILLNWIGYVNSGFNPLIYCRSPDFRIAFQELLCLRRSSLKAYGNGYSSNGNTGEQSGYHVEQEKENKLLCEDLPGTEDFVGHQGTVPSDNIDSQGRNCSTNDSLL
Sequence of human β1-adrenergic receptor (P08588 whole entry): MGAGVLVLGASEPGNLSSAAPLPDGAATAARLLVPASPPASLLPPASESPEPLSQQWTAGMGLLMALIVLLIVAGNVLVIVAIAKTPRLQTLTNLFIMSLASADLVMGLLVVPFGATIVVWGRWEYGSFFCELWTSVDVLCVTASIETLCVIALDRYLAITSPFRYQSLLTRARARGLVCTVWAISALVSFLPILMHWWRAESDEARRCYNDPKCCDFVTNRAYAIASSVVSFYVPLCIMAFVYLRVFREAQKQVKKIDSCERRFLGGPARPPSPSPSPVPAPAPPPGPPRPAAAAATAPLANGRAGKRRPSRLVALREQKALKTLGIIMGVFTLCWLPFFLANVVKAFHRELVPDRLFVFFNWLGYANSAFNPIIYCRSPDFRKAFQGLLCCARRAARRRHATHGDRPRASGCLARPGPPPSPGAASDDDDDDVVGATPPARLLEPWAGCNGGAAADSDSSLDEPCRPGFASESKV

Row | Compound | IC50 [1, 5] | binding/affinity at β1 site, in words ([2]; human β1-adrenergic receptor) | β1/β2 Selectivity ([1]; ratio of IC50 values β1/β2) | adrenergic receptor agonist selectivity, in words [1] | binding/affinity at β2 site, in words ([1]; human β2-adrenergic receptor) | also measured
1 | COc1ccc(C[C@@H](C)NC[C@@H](O)c2ccc(O)c(N)c2)cc1 [(S,R)-Desformoterol] | 1.89 µM | Neither (R,S)- nor (S,R)-desformoterol showed high affinity for the β1 receptor |  |  |  | inhibition at 10 µM ([2]; at 10^-5 M): 22%
2 | COc1ccc(C[C@@H](C)NC[C@H](O)c2ccc(O)c(NC=O)c2)cc1 (relative stereo) [Formoterol] |  |  |  |  |  | bronchodilating effect, in words [3]: long lasting bronchodilating effect
3 | COc1ccc(C[C@H](C)NC[C@H](O)c2ccc(O)c(N)c2)cc1 [(R,S)-Desformoterol] | 3.14 µM | Neither (R,S)- nor (S,R)-desformoterol showed high affinity for the β1 receptor; also recorded: comparable to that of atenolol at the β1 -site | < 1 |  |  | IC50 [2, 6]: 1.79 µM
4 | COc1ccc(C[C@@H](C)NC[C@H](O)c2ccc(O)c(N)c2)cc1 [(R,R)-Desformoterol, (R,R)-3-amino-4-hydroxy-α-[[[2-(4-methoxyphenyl)-1-methylethyl]amino]methyl]-benzenemethanol] |  |  | 89 | highly selective β-adrenergic receptor agonists | significant binding primarily at the β2 -site | IC50 [1]: 0.0356 µM; selectivity (β1/β2) for the β2-receptor ([1]; ratio of IC50 values β1/β2): approximately 89 fold; IC50 [2]: 3.18 µM
5 | COc1ccc(C[C@H](C)NC[C@@H](O)c2ccc(O)c(N)c2)cc1 [(S,S)-Desformoterol] |  | lacked affinity for both β-adrenergic sites | < 6 |  | lacked affinity for both β-adrenergic sites | IC50 [1]: > 10 µM; IC50 [2]: 64.7 µM
6 | COc1ccc(C[C@@H](C)NC[C@H](O)c2ccc(O)c(N)c2)cc1 (relative stereo) [(R,R)-/(S,S)-Racemate of Desformoterol] | 0.0813 µM |  | 63 | highly selective β-adrenergic receptor agonists | significant binding only at the β2 -site | IC50 [2, 6]: 5.14 µM
7 | COc1ccc(CC(C)NCC(O)c2ccc(O)c(N)c2)cc1 (stereo not drawn) [desformoterol, 3-Amino-4-hydroxy-α-[[[2-(4-methoxyphenyl)-1-methylethyl]amino]methyl]-benzenemethanol] |  |  |  | highly selective β2 -adrenergic receptor agonist |  | pH of maximum stability [4]: 2
